Measured values from patent US20250108064A1, “PHOSPHATE PRODRUGS OF CANNABINOIDS” (priority 2021, published 2025).

Columns and labels:
[1] = Plasma stability assay (human plasma); assay type: in vitro ADME; details: 37° C., read-out: T½ in human plasma (converted)
Experimental: General Experimental: Procaine and Procainamide were purchased from Sigma-Aldrich. Human plasma was obtained from BioIVT (Cat. No. […]2N) and 1X Dulbecco's PBS (pH 7.4, Gibco) was obtained from Thermos Fischer. Stock solutions were prepared in 100% DMSO, and suitable dilutions of target analytes were prepared in methanol for method development.
Procedure for Plasma Stability Assay: Test compounds were dissolved in DMSO to make a stock solution of 10 mM and then diluted to 500 μM in buffer (or 70% MeOH). Human plasma was thawed at ambient temperature and is aliquoted ([…]) to a 1.5 mL Eppendorf tube in duplicates (A and B) for each compound. Plasma was incubated at 37° C. for 10 minutes in an incubator shaker at 150 rpm; the reaction was initiated by the addition of the test compound (6.0 μL) and vortex mixing. The total reaction volume was 1000 μL where the final organic solvent concentrations were 0.6% MeOH and 0.03% DMSO. The spiked plasma samples were incubated at 37° C. for 4 hrs. The reactions were terminated at time points 0, 15, 30, 60, 120, 180, and 240 min by taking a 100 μL aliquot from the test incubation mixture and immediately quenching it in ice-cold acetonitrile containing internal standard (150 μL with 2 μM ISTD), followed by a quick vortex mixing. In addition, matrix blank was prepared by adding acetonitrile solutions containing ISTD to plasma samples without any of the analytes or control compounds. Also, an additional tube was made to measure compound degradation in PBS buffer. The samples were centrifuged at 15000 rpm for 25 min at 4° C. The supernatant was transferred to an LC-MS vial for analysis by LC/MS-MS. Each time point was run in duplicates followed by in-between blank washes to avoid the carryover and to equilibrate the column. Half-life (T1/2) was calculated using the data obtained from LC-MS/MS and by plotting ln (% remaining of the parent prodrug) versus time and performing linear regression to determine slope. Slope=−k and T1/2=0.693/k for first-order kinetics.
These positive controls were run in parallel to test the systems for competency.

[2] = Liver microsome stability assay (HLM); assay type: in vitro ADME; details: human, microsomes, pH 7.4; 3 μM test compound, NADPH; read-out: T½ in HLM
Experimental: General Experimental: Human and mouse liver microsomes were purchased from Xenotech at 20 mg/mL. NADPH (Sigma-Aldrich) 10 mM stocks were prepared in deionized water.
Procedure for Liver Microsome Stability Assay: Test compounds and positive controls were dissolved in 100% DMSO to make 10 mM stock solutions. Verapamil (Sigma-Aldrich) and diphenhydramine (Sigma-Aldrich) were used as positive controls for both human liver microsomes (HLM) and mouse liver microsomes (MLM). The 10 mM stock solutions of test and control compounds were further diluted in potassium phosphate buffer (100 mM, pH 7.4) to 500 μM to ensure that the organic solvent content was <0.2%. The liver microsome (HLM or MLM) assay was prepared in a 1.5 mL Eppendorf tube with a final volume of 1100 μL for duplicate runs. Each reaction contained phosphate buffer (928.4 μL), liver microsomes (55 μL), and test compound (6.6 μL of 500 μM), resulting in a final concentration of 3 μM for the test compound. The reaction was initiated with 110 μL of 10 mM NADPH. Aliquots (100 μL) were removed in duplicate at 0, 5, 10, 15, and 30 min and quenched in […] of 100% cold methanol which contained internal standard (ISTD: d5-7-ethoxy coumarin 2 μM). The aliquots were centrifuged at 12,000 g for 5 min, and the supernatant was transferred and placed in an LC-MS vial. Each time point was assessed by LC-MS/MS, and the area under the m/z curve (AUC), based on the MRM transition, was integrated w.r.t the ISTD. Positive controls were conducted at a final volume of 550 μL to enable a single run for each time point. Negative controls in the absence of NADPH were performed with the test and control compounds, respectively, at a final volume of 150 μL and measured at the most prolonged time point. Control compounds were processed and analyzed like test compounds. Each time point was run in triplicates on LC-MS/MS followed by in-between blank washes to avoid the carryover and to equilibrate the column. Half-life (T1/2) was calculated using the data obtained from LC-MS/MS and by plotting ln (% remaining of the parent prodrug) versus time and performing linear regression to determine slope. Slope=−k and T1/2=0.693/k for first-order kinetics.

physchem = assay type: physicochemical; details: aqueous buffer, kinetic from dmso stock; nephelometry, PBS pH 7.0-7.3, 1% DMSO, 25° C., 90 min
Experimental: General Experimental: Nephelometry experiments were performed using untreated Corning® Costar® 96-well black polystyrene plates with clear flat bottoms. Sample stock solutions and serial dilutions were prepared with DriSolv® DMSO purchased from MilliporeSigma. All 100-fold dilutions and replicate experiments were prepared using Gibco® Dulbecco's phosphate-buffered saline (DPBS, no calcium, no magnesium) with a pH range of 7.0-7.3 as aqueous media. […] Nephelometry data was obtained using a NEPHELOstar® microplate reader and processed with MARS data analysis software from BMG LabTech.
Procedure for Nephelometry Experiments: Tested compounds were dissolved in 100% DMSO to make stock solutions of specified concentrations, ranging from 10 mM minimum up to 50 mM maximum. The sample then underwent serial dilution in a 96-well plate (Corning® Costar®). Well A1 of the plate contained 100% DMSO. […] Using a 12 channel multichannel pipette, 2.5 μL of sample from row A was transferred to each well in row B through row H of the plate. Next, 30 μL of PBS (pH=7.0-7.3) was added to row B through row H, providing each well with 32.5 μL. The plate was then incubated for 30 sec with shaking. Finally, 217.5 μL of PBS buffer was added to row B through row H, and the entire plate was incubated with shaking at 25° C. for 90 min. Note: The final volume of DMSO in actual experiments with PBS buffer was 1% throughout the plate. After 90 min, the 96-well plate was analyzed with a NEPHELOstar® instrument and the data was processed with MARS data analysis software.

SMILES | half-life [1] [min] | half-life [2] [min] | solubility (physchem) [µM] | half-life ([1]; unit min) [min]
C=C(C)[C@@H]1CCC(C)=C[C@H]1c1c(O)cc(CCCCC)cc1OC(=O)C1(OP(=O)(O)OCCC(C)C)CC1.N [14c, 1-((((1′R,2′R)-6-hydroxy-5′-methyl-4-pentyl-2′-(prop-1-en-2-yl)-1′,2′,3′,4′-tetrahydro-[1,1′-biphenyl]-2-yl)oxy)carbonyl)cyclopropyl isopentyl phosphate ammonium salt] | > 240 | 24 | 345 ± 4.51 | 
C=C(C)[C@@H]1CCC(C)=C[C@H]1c1c(O)cc(CCCCC)cc1OC(=O)C1(OP(=O)(O)OCCCCCCC)CC1.N [14e, heptyl (1-((((1′R,2′R)-6-hydroxy-5′-methyl-4-pentyl-2′-(prop-1-en-2-yl)-1′,2′,3′,4′-tetrahydro-[1,1′-biphenyl]-2-yl)oxy)carbonyl)cyclopropyl) phosphate ammonium salt] | > 240 | 45 | 57 ± 1.24 | 
C=C(C)[C@@H]1CCC(C)=C[C@H]1c1c(O)cc(CCCCC)cc1OC(=O)OCCCCOP(=O)(O)O.N.N [29c, (1′R,2′R)-6-hydroxy-5′-methyl-4-pentyl-2′-(prop-1-en-2-yl)-1′,2′,3′,4′-tetrahydro-[1,1′-biphenyl]-2-yl(4-(phosphonooxy)butyl) carbonate di-ammonium salt] | > 240 | 25 | > 500 | 
C=C(C)[C@@H]1CCC(C)=C[C@H]1c1c(O)cc(CCCCC)cc1OC(=O)C(C)(C)OP(=O)(O)O.N.N [7e, 1-(((1′R,2′R)-6-hydroxy-5′-methyl-4-pentyl-2′-(prop-1-en-2-yl)-1′,2′,3′,4′-tetrahydro-[1,1′-biphenyl]-2-yl)oxy)-2-methyl-1-oxopropan-2-yl phosphate di-ammonium salt] |  |  | > 500 | 24
C=C(C)[C@@H]1CCC(C)=C[C@H]1c1c(O)cc(CCCCC)cc1OC(=O)C1(OP(=O)(O)OCCOCCOC)CC1.N [14j, 1-((((1′R,2′R)-6-hydroxy-5′-methyl-4-pentyl-2′-(prop-1-en-2-yl)-1′,2′,3′,4′-tetrahydro-[1,1′-biphenyl]-2-yl)oxy)carbonyl)cyclopropyl (2-(2-methoxyethoxy)ethyl) phosphate ammonium salt] | > 240 | 24 | > 500 | 
C=C(C)[C@@H]1CCC(C)=C[C@H]1c1c(O)cc(CCCCC)cc1OC(=O)C1(OP(=O)(O)OCCOC)CC1.N [14i, 1-((((1′R,2′R)-6-hydroxy-5′-methyl-4-pentyl-2′-(prop-1-en-2-yl)-1′,2′,3′,4′-tetrahydro-[1,1′-biphenyl]-2-yl)oxy)carbonyl)cyclopropyl (2-methoxyethyl) phosphate ammonium salt] | > 240 | 19 | > 500 | 
C=C(C)[C@@H]1CCC(C)=C[C@H]1c1c(O)cc(CCCCC)cc1OC(=O)C1(OP(=O)(O)OCc2ccccc2)CC1.N [compound 8, benzyl (1-((((1′R,2′R)-6-hydroxy-5′-methyl-4-pentyl-2′-(prop-1-en-2-yl)-1′,2′,3′,4′-tetrahydro-[1,1′-biphenyl]-2-yl)oxy)carbonyl)cyclopropyl) phosphate ammonium salt] | 318 | 23 | 287 ± 13 | 
C=C(C)[C@@H]1CCC(C)=C[C@H]1c1c(O)cc(CCCCC)cc1OC(=O)C(C)OP(=O)(O)O.N.N (stereo partly drawn) [7d, 1-(((1′R,2′R)-6-hydroxy-5′-methyl-4-pentyl-2′-(prop-1-en-2-yl)-1′,2′,3′,4′-tetrahydro-[1,1′-biphenyl]-2-yl)oxy)-1-oxopropan-2-yl phosphate di-ammonium salt] |  | 50 | > 500 | 21
C=C(C)[C@@H]1CCC(C)=C[C@H]1c1c(O)cc(CCCCC)cc1OC(=O)C1(OP(=O)(O)OCC(CCC)CCC)CC1.N [14h, 1-((((1′R,2′R)-6-hydroxy-5′-methyl-4-pentyl-2′-(prop-1-en-2-yl)-1′,2′,3′,4′-tetrahydro-[1,1′-biphenyl]-2-yl)oxy)carbonyl)cyclopropyl (2-propylpentyl) phosphate ammonium salt] | > 240 | 26 | 66 ± 3.17 | 
C=C(C)[C@@H]1CCC(C)=C[C@H]1c1c(O)cc(CCCCC)cc1OC(=O)NCCOP(=O)(O)O.N.N [38a, (1′R,2′R)-6-hydroxy-5′-methyl-4-pentyl-2′-(prop-1-en-2-yl)-1′,2′,3′,4′-tetrahydro-[1,1′-biphenyl]-2-yl(2-(phosphonooxy)ethyl)carbamate di-ammonium salt] | > 240 | 121 | > 500 | 
C=C(C)[C@@H]1CCC(C)=C[C@H]1c1c(O)cc(CCCCC)cc1OC(=O)C1CC(OP(=O)(O)O)C1.N.N (stereo partly drawn) [7c, 3-((((1′R,2′R)-6-hydroxy-5′-methyl-4-pentyl-2′-(prop-1-en-2-yl)-1′,2′,3′,4′-tetrahydro-[1,1′-biphenyl]-2-yl)oxy)carbonyl)cyclobutyl phosphate di-ammonium salt] | 432 | 53 | > 500 | 
C=C(C)[C@@H]1CCC(C)=C[C@H]1c1c(O)cc(CCCCC)cc1OC(=O)OCOP(=O)(O)O.N.N [compound 24, (1′R,2′R)-6-hydroxy-5′-methyl-4-pentyl-2′-(prop-1-en-2-yl)-1′,2′,3′,4′-tetrahydro-[1,1′-biphenyl]-2-yl ((phosphonooxy)methyl) carbonate di-ammonium salt] | > 240 |  | > 500 | 
C=C(C)[C@@H]1CCC(C)=C[C@H]1c1c(O)cc(CCCCC)cc1OC(=O)NCCCOP(=O)(O)O.N.N [38c, (1′R,2′R)-6-hydroxy-5′-methyl-4-pentyl-2′-(prop-1-en-2-yl)-1′,2′,3′,4′-tetrahydro-[1,1′-biphenyl]-2-yl (3-(phosphonooxy)propyl)carbamate di-ammonium salt] | > 240 | 73 | > 500 | 
